Assay results published in patent US8288367B2, “Substituted estratriene derivatives as 17BETA HSD inhibitors” (Solvay Pharmaceuticals GmBH, priority 2006, dated 2012).

Experiments:
[1] = biological target: T1, recombinant human 17β-HSD1 (Homo sapiens, UniProt P14061); test: Recombinant 17β-HSD1 assay (HPLC, 3H-estrone conversion); type: biochemical; conditions: 30 nM estrone, 1 mM NADPH, 30 min RT, read-out: Inhibition of rec. 17β-HSD1; for inhibition at 0.1 µM: 100 nM compound; for inhibition at 1 µM: 0.5 h, 1 μm compound
T1 construct: made in house; host or cells: Sf9 insect cells (baculovirus, Bac to Bac Expression System)
T1 sequence (P14061 1-328): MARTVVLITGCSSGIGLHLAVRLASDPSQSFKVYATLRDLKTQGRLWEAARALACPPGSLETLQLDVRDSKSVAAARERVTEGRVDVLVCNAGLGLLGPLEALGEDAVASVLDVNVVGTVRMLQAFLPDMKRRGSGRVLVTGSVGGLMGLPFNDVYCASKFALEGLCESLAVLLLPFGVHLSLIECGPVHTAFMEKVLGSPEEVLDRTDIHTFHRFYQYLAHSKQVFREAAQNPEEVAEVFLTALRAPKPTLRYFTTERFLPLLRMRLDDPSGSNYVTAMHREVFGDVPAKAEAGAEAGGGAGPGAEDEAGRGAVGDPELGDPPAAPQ
Experimental: 17β-HSD1 or 17β-HSD2 purification: Recombinant 17β-HSD1 and 17β-HSD2 baculoviruses were generated by the “Bac to Bac Expression System” (Invitrogen). Recombinant 17β-HSD1 or 17β-HSD2 bacmids were transfected to Sf9 insect cells using “Cellfectin Reagent” (Invitrogen). 60 h later cells were harvested; the fractions including 17β-HSD1 or 17β-HSD2 were isolated as described by Puranen et al. (1994). Aliquots were stored frozen until determination of enzymatic activity.
Recombinant 17β-HSD1 assay: Recombinant protein homogenate (0.1 μg/ml) was incubated in 20 mM KH2PO4 pH 7.4 reaction buffer, including protease inhibitors (Complete Protease Inhibitor Cocktail tablet, Roche Diagnostics, 1697498), with 30 nM estrone (Sigma, E9750) as substrate, 800 000 cpm/ml ^3H-estrone (PerkinElmer, NET319001MC) as a tracer substrate, and 1 mM NADPH (Sigma, N1630) as a co-factor for 30 min at RT, in the presence of potential inhibitors at concentrations of 1 μM or 0.1 μM. Inhibitor stock solutions were prepared in DMSO. The enzyme reaction was stopped by addition of trichloroacetic acid (1% final concentration). Samples were centrifuged in a microtiter plate at 4000 rpm for 10 min. Supernatants were applied to reverse phase HPLC on a Waters Symmetry C18 column, equipped with a Waters Sentry Guard column. Isocratic HPLC runs were performed at RT at a flow rate of 1 ml/min of acetonitrile:water 48:52 as running solvent. Radioactivity was monitored in the eluate by a Packard Flow Scintillation Analyzer. Total radioactivity for estrone and estradiol were determined in each sample and percent inhibition of estradiol conversion by the respective inhibitor was calculated
For the calculation of % inhibition the following formula was used:
[formula] Percent inhibition was calculated as follows: % inhibition=100−% conversion

[2] = biological target: T2, recombinant human 17β-HSD2 (Homo sapiens, UniProt P37059); test: Recombinant 17β-HSD2 assay (HPLC, 3H-estradiol conversion); type: biochemical; conditions: 50 nM estradiol, 1 mM β-NAD, read-out: Inhibition of rec. 17β-HSD2; for inhibition at 0.1 µM: 100 nM compound; for inhibition at 1 µM: 1 μm compound
T2 construct: made in house; host or cells: Sf9 insect cells (baculovirus, Bac to Bac Expression System)
T2 sequence (P37059 1-387): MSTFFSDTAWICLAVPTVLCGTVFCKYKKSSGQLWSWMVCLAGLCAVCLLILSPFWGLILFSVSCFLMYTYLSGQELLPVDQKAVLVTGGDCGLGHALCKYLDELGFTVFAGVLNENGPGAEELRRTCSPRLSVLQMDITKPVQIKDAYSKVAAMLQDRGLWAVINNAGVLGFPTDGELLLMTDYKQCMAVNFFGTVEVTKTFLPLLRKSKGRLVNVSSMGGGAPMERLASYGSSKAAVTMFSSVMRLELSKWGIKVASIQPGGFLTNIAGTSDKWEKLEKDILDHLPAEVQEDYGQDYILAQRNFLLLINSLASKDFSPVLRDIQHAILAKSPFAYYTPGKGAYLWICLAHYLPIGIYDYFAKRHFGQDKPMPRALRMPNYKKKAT
Experimental: 17β-HSD1 or 17β-HSD2 purification: Recombinant 17β-HSD1 and 17β-HSD2 baculoviruses were generated by the “Bac to Bac Expression System” (Invitrogen). Recombinant 17β-HSD1 or 17β-HSD2 bacmids were transfected to Sf9 insect cells using “Cellfectin Reagent” (Invitrogen). 60 h later cells were harvested; the fractions including 17β-HSD1 or 17β-HSD2 were isolated as described by Puranen et al. (1994). Aliquots were stored frozen until determination of enzymatic activity. Recombinant 17β-HSD2 assay: Recombinant 17β-HSD2 assay was performed as described for 17β-HSD1 but with following modifications: 6 μg/ml of recombinant protein homogenate, 50 nM Estradiol (Sigma, E8875) as a substrate, 800 000 cpm/ml ^3H-estradiol (PerkinElmer, NET317) as a tracer substrate and 1 mM β-NAD (Sigma N7004) as a co-factor were used. Total radioactivity for estrone and estradiol were determined in each sample and percent inhibition of estrone conversion by the respective inhibitor was calculated. For the calculation of % inhibition the following formula was used: [formula] Percent inhibition was calculated as follows: % inhibition=100−% conversion

Structure (SMILES): C[C@]12CC[C@@H]3c4ccc(B(O)O)cc4CC[C@H]3[C@@H]1[C@H](CCC(=O)NCc1ccc3c(c1)OCO3)CC2=O [Compound 34, [15beta-{3-[(1,3-benzodioxol-5-ylmethyl)amino]-3-oxopropyl}-17-oxoestra-1(10),2,4-trien-3-yl]boronic acid]
- inhibition at 0.1 µM [1]: 47%
- inhibition at 1 µM [1]: 65%
- inhibition at 0.1 µM [2]: 3.2%
- inhibition at 1 µM [2]: 0.4%

Structure (SMILES): C[C@]12CC[C@@H]3c4ccc(B(O)O)cc4CC[C@H]3[C@@H]1[C@H](CCC(=O)N1CCCCC1)CC2=O [Compound 35, [17-oxo-15beta-(3-oxo-3-piperidin-1-ylpropyl)estra-1(10),2,4-trien-3-yl]boronic acid]
- inhibition at 0.1 µM [1]: 57%
- inhibition at 1 µM [1]: 56%
- inhibition at 0.1 µM [2]: 4%
- inhibition at 1 µM [2]: 1.5%

Structure (SMILES): CCN(CC)C(=O)CC[C@@H]1CC(=O)[C@@]2(C)CC[C@@H]3c4ccc(B(O)O)cc4CC[C@H]3[C@H]12 [Compound 39, [15beta-[3-(diethylamino)-3-oxopropyl]-17-oxoestra-1(10),2,4-trien-3-yl]boronic acid]
- inhibition at 0.1 µM [1]: 74%
- inhibition at 1 µM [1]: 88%
- inhibition at 0.1 µM [2]: 1.8%
- inhibition at 1 µM [2]: -0.6%

Structure (SMILES): C[C@]12CC[C@@H]3c4ccc(B(O)O)cc4CC[C@H]3[C@@H]1[C@H](CCC(=O)Nc1ccc3c(c1)OCO3)CC2=O [Compound 45, [15beta-[3-(1,3-benzodioxol-5-ylamino)-3-oxopropyl]-17-oxoestra-1(10),2,4-trien-3-yl]boronic acid]
- inhibition at 0.1 µM [1]: 49%
- inhibition at 1 µM [1]: 66%
- inhibition at 0.1 µM [2]: -1%
- inhibition at 1 µM [2]: -1.1%

Structure (SMILES): C[C@]12CC[C@@H]3c4ccc(B(O)O)cc4CC[C@H]3[C@@H]1[C@@H](CCCC(=O)N1CCOCC1)CC2(F)F [Compound 47, [17,17-difluoro-15alpha-(4-morpholin-4-yl-4-oxobutyl)estra-1(10),2,4-trien-3-yl]boronic acid]
- inhibition at 0.1 µM [1]: 10%
- inhibition at 1 µM [1]: 61%
- inhibition at 0.1 µM [2]: 3.8%
- inhibition at 1 µM [2]: 12.9%

Structure (SMILES): C[C@]12CC[C@@H]3c4ccc(B(O)O)cc4CC[C@H]3[C@@H]1[C@@H](CCCC(=O)NCc1ccc3c(c1)OCO3)CC2(F)F [Compound 50, [15alpha-{4-[(1,3-benzodioxol-5-ylmethyl)amino]-4-oxobutyl}-17,17-difluoroestra-1(10),2,4-trien-3-yl]boronic acid]
- inhibition at 0.1 µM [1]: 40%
- inhibition at 1 µM [1]: 57%
- inhibition at 0.1 µM [2]: 8%
- inhibition at 1 µM [2]: 32.8%

Structure (SMILES): COc1ccc(CCN(C)C(=O)CCC[C@H]2CC(F)(F)[C@@]3(C)CC[C@@H]4c5ccc(B(O)O)cc5CC[C@H]4[C@H]23)cc1OC [Compound 51, [15alpha-(4-{[2-(3,4-dimethoxyphenyl)ethyl](methyl)amino}-4-oxobutyl)-17,17-difluoroestra-1(10),2,4-trien-3-yl]boronic acid]
- inhibition at 0.1 µM [1]: 37%
- inhibition at 1 µM [1]: 62%
- inhibition at 0.1 µM [2]: 2.8%
- inhibition at 1 µM [2]: 7.8%

Structure (SMILES): C[C@]12CC[C@@H]3c4ccc(B(O)O)cc4CC[C@H]3[C@@H]1[C@@H](CCCC(=O)NCc1ccccc1)CC2(F)F [Compound 54, [15alpha-[4-(benzylamino)-4-oxobutyl]-17,17-difluoroestra-1(10),2,4-trien-3-yl]boronic acid]
- inhibition at 0.1 µM [1]: 41%
- inhibition at 1 µM [1]: 58%
- inhibition at 0.1 µM [2]: 7.6%
- inhibition at 1 µM [2]: 25.2%

Structure (SMILES): Cc1cnc(NC(=O)CC[C@@H]2CC(F)(F)[C@@]3(C)CC[C@@H]4c5ccc(B(O)O)cc5CC[C@H]4[C@H]23)s1 [Compound 58, [17,17-difluoro-15β-{3-[(5-methyl-1,3-thiazol-2-yl)amino]-3-oxopropyl}estra-1(10),2,4-trien-3-yl]boronic acid]
- inhibition at 0.1 µM [1]: 23%
- inhibition at 1 µM [1]: 55%
- inhibition at 0.1 µM [2]: 6.8%
- inhibition at 1 µM [2]: 11.6%

Structure (SMILES): C[C@]12CC[C@@H]3c4ccc(B(O)O)cc4CC[C@H]3[C@@H]1[C@H](CCC(=O)NC1CCCCC1)CC2(F)F [Compound 59, [15beta-[3-(cyclohexylamino)-3-oxopropyl]-17,17-difluoroestra-1(10),2,4-trien-3-yl]boronic acid]
- inhibition at 0.1 µM [1]: 69%
- inhibition at 1 µM [1]: 84%
- inhibition at 0.1 µM [2]: 0.6%
- inhibition at 1 µM [2]: 15.2%

Structure (SMILES): C[C@]12CC[C@@H]3c4ccc(B(O)O)cc4CC[C@H]3[C@@H]1[C@H](CCC(=O)NCc1cccnc1)CC2(F)F [Compound 62, [17,17-Difluoro-15beta-{3-oxo-3-[(pyridin-3-ylmethyl)amino]propyl}estra-1(10),2,4-trien-3-yl]boronic acid]
- inhibition at 0.1 µM [1]: 36%
- inhibition at 1 µM [1]: 56%
- inhibition at 0.1 µM [2]: 6.2%
- inhibition at 1 µM [2]: 8.3%

Structure (SMILES): C[C@]12CC[C@@H]3c4ccc(B(O)O)cc4CC[C@H]3[C@@H]1[C@H](CCC(=O)NCc1ccc(F)cc1F)CC2(F)F [Compound 65, [15beta-{3-[(2,4-difluorobenzyl)amino]-3-oxopropyl}-17,17-difluoroestra-1(10),2,4-trien-3-yl]boronic acid]
- inhibition at 0.1 µM [1]: 32%
- inhibition at 1 µM [1]: 63%
- inhibition at 0.1 µM [2]: 5.8%
- inhibition at 1 µM [2]: 9.8%

Structure (SMILES): C[C@]12CC[C@@H]3c4ccc(B(O)O)cc4CC[C@H]3[C@@H]1[C@H](CCC(=O)Nc1ccc3c(c1)OCO3)CC2(F)F [Compound 74, [15beta-[3-(1,3-benzodioxol-5-ylamino)-3-oxopropyl]-17,17-difluoroestra-1(10),2,4-trien-3-yl]boronic acid]
- inhibition at 0.1 µM [1]: 55.6%
- inhibition at 1 µM [1]: 71.4%
- inhibition at 0.1 µM [2]: 4.9%
- inhibition at 1 µM [2]: 5.5%
